From patent US20200071361A1, “ENGINEERED ANTIMICROBIAL AMPHIPHILIC PEPTIDES AND METHODS OF USE” (priority 2017, published 2020) come the findings set out here.

Series [1] concerns Acinetobacter spp. isolates (n = 104). Put plainly: Broth microdilution MIC, clinical isolate panel. It counts as cell-based. Particulars: Acinetobacter spp. (n = 104). How it is done:
(§1) Comparator antibiotics were supplied by Micromyx, and stock solutions were prepared on the first day of testing using solvents recommended by CLSI (1). Stock solutions of all compounds were made at 40× the final testing concentration and stored at −80° C. prior to testing. Information regarding compound source, catalog and lot number, testing concentrations and drug diluent for the comparators and test agent are detailed below in Table 3.
(§2) The test organisms evaluated in this study consisted of clinical isolates from the Micromyx Repository and reference isolates from the American Type Culture Collection (ATCC; Manassas, Va.). The clinical isolates were obtained from USA hospitals. Upon initial receipt at Micromyx, the organisms were sub-cultured onto an appropriate agar medium. Following incubation, colonies were harvested from these plates and cell suspensions prepared and frozen at −80° C. with a cryoprotectant. Prior to testing, the isolates were streaked from frozen vials onto Trypticase Soy Agar with 5% sheep blood (Becton Dickenson [BD]; Sparks, Md.; Lot Nos. 7173618, 7166759, 7208688, 72144895, 7228505 and Remel Lenexa, Kans. Lot No. 212574). Plates were incubated at 35° C. overnight.
(§3) Mueller Hinton II broth (MHB II; BD; Lot Nos. 6258541 and 7143896) was used for MIC testing of aerobic organisms.
(§4) MIC values were determined using a broth microdilution procedure described by CLSI (1, 3). Automated liquid handlers (Multidrop 384, Labsystems, Helsinki, Finland; Biomek 2000 and Biomek FX, Beckman Coulter, Fullerton Calif.) were used to conduct serial dilutions and liquid transfers.
(§5) To prepare the drug mother plates, which would provide the serial drug dilutions for the replicate daughter plates, the wells of columns 2-12 of standard 96-well microdilution plates (Costar 3795) were filled with 150 μl of the designated diluent for each row of drug. The test articles and comparator compounds (300 μl at 40× the highest concentration to be tested) were dispensed into the appropriate wells in column 1. The Biomek 2000 was then used to make 2-fold serial dilutions in the mother plates from column 1 through column 11. The wells of Column 12 contained no drug and served as the organism growth control wells for the assay.
(§6) The daughter plates were loaded with 185 μL per well of MHB II using the Multidrop 384. The daughter plates were completed on the Biomek FX instrument which transferred 5 µL of drug solution from each well of a mother plate to the corresponding well of each daughter plate in a single step. A standardized inoculum of each test organism was prepared per CLSI methods (1). The inoculum for each organism was dispensed into sterile reservoirs divided by length (Beckman Coulter), and the Biomek 2000 was used to inoculate the plates. Daughter plates were placed on the Biomek 2000 work surface in reverse orientation so that inoculation took place from low to high drug concentration.
(§7) Plates were stacked 3-4 high, covered with a lid on the top plate, placed in plastic bags, and incubated at 35° C. for 16 to 20 hrs. Following incubation, the microplates were removed from the incubator and viewed from the bottom using a plate viewer. […] The MIC was read and recorded as the lowest concentration of drug that inhibited visible growth of the organism.
(§8) Clinical breakpoints to determine percent resistance within a given organism group were obtained from CLSI (3), with the exception of colistin for K. pneumoniae, Enterobacter spp., and E. coli, which are only available from EUCAST.
In general terms: In broth dilution the organism is exposed to a series of concentrations in liquid medium.

Series [2] has as its system Klebsiella pneumoniae isolates (n = 101). As to the kind of experiment: Broth microdilution MIC, clinical isolate panel. Format: cell-based. To be noted: Klebsiella pneumoniae (n = 101). As to the method: as §1, §2, §3, §4, §5, §6, §7, §8
The subject of series [3] is Escherichia coli isolates (n = 101). Put plainly: Broth microdilution MIC, clinical isolate panel. It counts as cell-based. To be noted: Escherichia coli (n = 101). As to the method:
as §1, §2, §3, §4, §5, §6, §7, §8

Series [4] concerns Pseudomonas aeruginosa isolates (n = 109). Put plainly: Broth microdilution MIC, clinical isolate panel. Format: cell-based. To be noted: Pseudomonas aeruginosa. As to the method: as §1, §2, §3, §4, §5, §6, §7, §8
The subject of series [5] is Staphylococcus aureus isolates (n = 104). As to the kind of experiment: Broth microdilution MIC, clinical isolate panel. Format: cell-based. To be noted: Staphylococcus aureus (n = 104), all methicillin-resistant. How it is done: as §1, §2, §3, §4, §5, §6, §7, §8
For series [6] the following is noted: for AUC(0-inf): AUCinf; for clearance: CL; for half-life: T 1/2, macaque; for Vd: Vss. As to the method: Animals will be obtained from the Test Facility's colony of adult male cynomolgous monkeys (Macaca fascicularis) of Chinese origin. Animals will be weighed prior to dosing.
Animals will be fasted a minimum of 2 hours prior to procedures requiring the administration of ketamine anesthesia. The diet will also be supplemented with other nutrients by feeding items such as raisins or fresh fruits that are presented to the animal as part of an environmental enrichment program. Offering items known to cause diarrhea will be avoided.
Intravenous administration will be via 30 minute infusion into a temporary percutaneous catheter placed into a saphenous vein. Prior to and following dose administration, the catheter will be flushed with 0.5 mL saline prior to removal. All dosing syringes will be weighed prior to and following dosing.
All animals will be observed at dosing and each scheduled collection. All abnormalities will be recorded.
Serial blood samples will be collected via femoral vein (cephalic or saphenous, as necessary). Approximately 1 mL blood samples will be collected into K2EDTA tubes.
Blood samples will be collected into K2EDTA tubes and stored on wet ice. Whole blood will be processed to plasma by centrifugation (2400-2700 rpm at 5° C.) within 30 minutes of collection. Plasma samples will be split into 2 equal aliquots and stored at −80° C. until analysis.
Administered doses will be determined gravimetrically.
Prior to extraction, a known concentration of a mass-adjusted internal standard (IS) will be added to assess recovery and allow for quantitation. Purified samples will be further subjected to high-performance liquid chromatography (HPLC) using C18 300 or 130 angstrom columns prior to MS/MS analysis. Multiple charge states will be observed by MS, so MS/MS will be employed to enable multiple reaction monitoring (MRM) analyses to determine the most MRM transitions with the highest signal-to-noise gain. Compound plasma concentrations will be determined by comparing to and compensating with co-purified IS peak intensity and validated calibrated standard curves.
Toxicokinetic parameters will be calculated using non-compartmental methods as implemented in the Phoenix® WinNonlin® ver. 6.3 comprehensive TK/PK analysis software program (Pharsight Corporation; Mountain View, Calif.) using an IV infusion model. Toxicokinetic analysis will be conducted using a 30-minute intravenous infusion time. Therefore, 30 minutes will be added to each sample time point postdose to obtain nominal time for TK analysis. Nominal times and dosage levels will be used for all calculations. Values below the lower limit of quantitation (BLQ) will be assigned a value of zero for the toxicokinetic calculations. Microsoft® Excel® 2013 will be used for receipt of bioanalytical data, minor formatting, including setting BLQ values to “0”, transfer into WinNonlin® for TK analysis, and calculation of the mean when an approximated value will be excluded. All plasma concentration data from all animals will be included in the analysis. Graphical presentations will be performed using Prism® for Macintosh ver. 7.0a (GraphPad, Inc.; La Jolla, Calif.).

For series [7] the following is noted: mouse, in vivo, iv; for Vd: male CD-1 mice.
Excerpt: Male CD-1 mice will be received from an approved vendor and allowed to acclimate for a minimum of two days. Fasting will be not required.
All dosing syringes will be weighed prior to and following dosing. IV doses will be administered as a slow bolus (over ˜30 seconds) via direct venipuncture of a tail vein. All animals will be observed at dosing and each scheduled collection. All abnormalities will be recorded.
Terminal blood samples will be collected via cardiac puncture following inhalation anesthesia.
Sample Processing and Storage: Blood samples will be collected into K2EDTA tubes and stored on wet ice. Whole blood will be processed to plasma by centrifugation (3500 rpm at 5° C.) within 30 minutes of collection. Plasma samples will be split into 2 equal aliquots and each transferred into 96 well plates (matrix tubes) and stored at −80° C. until analysis. Administered doses will be determined gravimetrically.
Pharmacokinetic parameters will be calculated using non-compartmental methods as implemented in the Phoenix® WinNonlin® ver. 6.3 comprehensive TK/PK analysis software program (Pharsight Corporation; Mountain View, Calif.) using an IV infusion model. Pharmacokinetic analysis will be conducted using a 30-minute intravenous infusion time. Therefore, 30 minutes will be added to each sample time point postdose to obtain nominal time for TK analysis. Nominal times and dosage levels will be used for all calculations. Values below the lower limit of quantitation (BLQ) will be assigned a value of zero for the pharmacokinetic calculations. Microsoft® Excel® 2013 will be used for receipt of bioanalytical data, minor formatting, including setting BLQ values to “0”, transfer into WinNonlin® for PK analysis, and calculation of the mean when an approximated value will be excluded. All plasma concentration data from all animals will be included in the analysis. Graphical presentations will be performed using Microsoft® Excel® 2013.
Setting [8] is: cynomolgus monkey, in vivo, iv, 1 mg/kg, macaque, 1 mg/kg IV infusion, Mean.
Setting [9] is: cynomolgus monkey, in vivo, iv, 3 mg/kg, macaque, 3 mg/kg IV infusion, Mean.
The mark [10] stands for this setting: cynomolgus monkey, in vivo, iv, 10 mg/kg, macaque, 10 mg/kg IV infusion, Mean.

In brackets after ≈: the same amount, converted by molar mass. Several values for one entry are separate records, joined by “and”; a condition that tells them apart may be missing. Equal entries are not always repeated. Where two headings read alike, the source gives them in different places. No end group written: not given here.

On to `CC(C)(O/N=C(\C(=O)N[C@@H]1C(=O)N2C(C(=O)[O-])=C(C[n+]3ccccc3)CS[C@H]12)c1csc(N)n1)C(=O)O` [Ceftazidime], for which the MIC50 (commonly the lowest concentration that inhibits either 50% of growth or 50% of the strains tested, depending on the study) in series [1] was more than 32 µg/mL; in series [2], more than 32 µg/mL; in series [3], 0.5 µg/mL (≈ 0.915 µM); in series [4], 4 µg/mL (≈ 7.32 µM). Also, the “% R (percent of isolates resistant, clinical breakpoints)” value in series [2] is “Over 80%”. The figures for the MIC in series [3] (read-out: Mode (MIC)) and in series [4] (read-out: Mode (MIC)) were 0.25 µg/mL (≈ 0.457 µM) and 2 µg/mL (≈ 3.66 µM), respectively.
With `CCC[C@@H]1C[C@@H](C(=O)N[C@@H]([C@H]2O[C@H](SC)[C@H](O)[C@@H](O)[C@H]2O)[C@H](C)Cl)N(C)C1` [Clindamycin], in series [5], the MIC50 was 0.12 µg/mL (≈ 0.282 µM).
Turning to `C[C@H]1c2cccc(O)c2C(=O)C2=C(O)[C@]3(O)C(=O)C(C(N)=O)=C(O)[C@@H](N(C)C)[C@@H]3[C@@H](O)[C@@H]21` [Doxycycline], in series [5], the “% R (percent of isolates resistant, clinical breakpoints)” value came out at 0%; the MIC50 turned out to be 0.12 µg/mL (≈ 0.27 µM); the MIC90 (as a rule, an inhibitory concentration at the 90% level, which refers to growth in some studies and to a panel of isolates in others) stood at 1 µg/mL (≈ 2.25 µM).
On to “RRWVRRVRRVWRRVVRVVRRWVRR-NH2 [SEQ ID NO: 1]”, for which the AUC(0-t) (as a rule, the area under the concentration-time curve up to a stated or last time point) was 1090 ng·h/mL in series [6] (cynomolgus monkey, in vivo, iv, 1 mg/kg, AUC0-24hr, macaque, 1 mg/kg IV infusion, Mean); 983 ng·h/mL in series [6] (cynomolgus monkey, in vivo, iv, 1 mg/kg, AUClast, macaque, 1 mg/kg IV infusion, Mean); 7580 ng·h/mL in series [6] (cynomolgus monkey, in vivo, iv, 3 mg/kg, AUC0-24hr, macaque, 3 mg/kg IV infusion, Mean); 7580 ng·h/mL in series [6] (cynomolgus monkey, in vivo, iv, 3 mg/kg, AUClast, macaque, 3 mg/kg IV infusion, Mean); 50300 ng·h/mL in series [6] (cynomolgus monkey, in vivo, iv, 10 mg/kg, AUC0-24hr, macaque, 10 mg/kg IV infusion, Mean); 50300 ng·h/mL in series [6] (cynomolgus monkey, in vivo, iv, 10 mg/kg, AUClast, macaque, 10 mg/kg IV infusion, Mean). Also, the AUC(0-t) in series [7] (15 mg/kg) was 53600 ng·h/mL. The AUC(0-inf) (usually total exposure, with the tail of the curve extrapolated) was 1170 ng·h/mL in series [6] (setting [8]); 7710 ng·h/mL in series [6] (setting [9]); 50800 ng·h/mL in series [6] (setting [10]); less than 3500 ng·h/mL in series [7] (3 mg/kg); 53800 ng·h/mL in series [7] (15 mg/kg). The clearance – broadly, a measure of how efficiently the substance is removed, as volume per time – in series [6] (setting [8]) is 18.5 mL/min/kg; in series [6] (setting [9]) it was 7.18 mL/min/kg; in series [6] (setting [10]) it was 6.32 mL/min/kg; in series [7] (3 mg/kg), approximately 5 mL/min/kg; in series [7] (15 mg/kg) it was 4.65 mL/min/kg. In addition, the Cmax (in general, the maximum level reached in the sampled fluid or tissue) turned out to be 1710 ng/mL in series [6] (setting [8]); 10300 ng/mL in series [6] (setting [9]); 38200 ng/mL in series [6] (setting [10]); 16600 ng/mL in series [7] (3 mg/kg); 163000 ng/mL in series [7] (15 mg/kg). The half-life (usually how long it takes for the measured level to halve) in series [6] (cynomolgus monkey, in vivo, iv, 1 mg/kg, 1 mg/kg IV infusion, Mean) was 2 h; in series [6] (cynomolgus monkey, in vivo, iv, 3 mg/kg, 3 mg/kg IV infusion, Mean), 5.2 h; in series [6] (cynomolgus monkey, in vivo, iv, 3 mg/kg, 3 mg/kg IV infusion, individual monkey) it was 4.4 h; in series [6] (cynomolgus monkey, in vivo, iv, 10 mg/kg, 10 mg/kg IV infusion, Mean), 4.6 h; in series [6] (cynomolgus monkey, in vivo, iv, 10 mg/kg, 10 mg/kg IV infusion, individual monkey) it was 4.3 h; in series [7] (3 mg/kg) it was approximately 8 h. In series [7] (15 mg/kg), the half-life was 7.45 h. Also, the Vd (in general, a proportionality between amount in the body and measured concentration, not a real space) in series [6] (setting [8]) was 1.38 L/kg; in series [6] (cynomolgus monkey, in vivo, iv, 1 mg/kg, macaque, 1 mg/kg IV infusion, individual monkey) it was 1.53 L/kg; in series [6] (setting [9]) it was 1.29 L/kg; in series [6] (cynomolgus monkey, in vivo, iv, 3 mg/kg, macaque, 3 mg/kg IV infusion, individual monkey) it was 1.58 L/kg; in series [6] (setting [10]), 1.26 L/kg; in series [7] (3 mg/kg, Vss, 3 mg/kg IV), approximately 0.2 L/kg. For the same compound, the Vd in series [7] (3 mg/kg, Vz, 3 mg/kg IV) was approximately 3 L/kg; in series [7] (15 mg/kg, Vss, 15 mg/kg IV), 0.208 L/kg; in series [7] (15 mg/kg, Vz, 15 mg/kg IV) it was 3 L/kg. Moreover, the Tmax (usually the time at which the peak concentration occurs) in series [6] (cynomolgus monkey, in vivo, iv, 3 mg/kg, Tmax, macaque, 3 mg/kg IV infusion, Mean) was found to be 6.6 min; in series [7] (3 mg/kg), 0.303 h. Also, the “T 1/2” value in series [6] (macaque, 3 mg/kg IV infusion, individual monkey, 3 mg/kg) was 6.3 h and 5 h; in series [6] (macaque, 10 mg/kg IV infusion, individual monkey, 10 mg/kg), 4.9 h and 4.6 h. In addition, the C0 amounted to 26000 ng/mL in series [7] (3 mg/kg) and 192000 ng/mL in series [7] (15 mg/kg). Besides, the values for the MRT last in series [7] (3 mg/kg) and in series [7] (15 mg/kg) were approximately 0.5 h and 0.579 h, respectively.
